Species on record: Rattus norvegicus
Assay type: toxicity, organism-based, Sprague-Dawley
Conditions: in vivo, po, 24 h, route oral GAVAGE, time 1 day, vehicle 100 % WATER; for ABSOLUTE BASOPHIL / ABSOLUTE EOSINOPHIL / ABSOLUTE LYMPHOCYTE / ABSOLUTE MONOCYTE / BASOPHIL / EOSINOPHIL / ERYTHROCYTE COUNT / HEMATOCRIT / HEMOGLOBIN / LEUKOCYTE COUNT / LYMPHOCYTE / MEAN CORPUSCULAR HEMOGLOBIN / MEAN CORPUSCULAR VOLUME / MONOCYTE / NEUTROPHIL / PLATELET COUNT: tissue Blood; for ALANINE AMINOTRANSFERASE / ALBUMIN / ALKALINE PHOSPHATASE / ASPARTATE AMINOTRANSFERASE / BLOOD UREA NITROGEN / CARBON DIOXIDE / CHLORIDE / CHOLESTEROL / CREATINE PHOSPHOKINASE / CREATININE / GLUCOSE / LACTATE DEHYDROGENASE / LIPASE / PHOSPHORUS / POTASSIUM / SODIUM / TOTAL BILIRUBIN / TOTAL PROTEIN / URIC ACID: tissue Plasma
[1] = 0 mg/kg, vehicle control, dose level Control

Description: DrugMatrix - Regimen: Single

Question: For `CCOC(=O)N1CCC(=C2c3ccc(Cl)cc3CCc3cccnc32)CC1` [LORATADINE], which ABSOLUTE BASOPHIL [1] is on record?
Answer: 63.3 cells/µL

Question: And the ABSOLUTE EOSINOPHIL [1]?
Answer: 66.7 cells/µL

Question: And the ABSOLUTE LYMPHOCYTE [1]?
Answer: 8010 cells/µL

Question: What about the ABSOLUTE MONOCYTE [1] of the same compound?
Answer: 240 cells/µL

Question: What about the BASOPHIL [1] of the same compound?
Answer: 0.6%

Question: What about the EOSINOPHIL [1] of the same compound?
Answer: 0.6%

Question: What about the “ERYTHROCYTE COUNT” value [1] of the same compound?
Answer: 6.25 x10E6/uL

Question: And the HEMATOCRIT [1]?
Answer: 40.47%

Question: And the HEMOGLOBIN [1]?
Answer: 12.83 G/DL

Question: And the “LEUKOCYTE COUNT” value [1]?
Answer: 10.19 x10E3/uL

Question: What about the LYMPHOCYTE [1] of the same compound?
Answer: 78.7%

Question: And the “MEAN CORPUSCULAR HEMOGLOBIN” value [1]?
Answer: 20.53 pg

Question: And the “MEAN CORPUSCULAR VOLUME” value [1]?
Answer: 64.67 fL

Question: What about the MONOCYTE [1] of the same compound?
Answer: 2.5%

Question: And the NEUTROPHIL [1]?
Answer: 17.07%

Question: And the “PLATELET COUNT” value [1]?
Answer: 1297 x10E3/uL

Question: What about the “ALANINE AMINOTRANSFERASE” value [1] of the same compound?
Answer: 32.67 u/L

Question: What about the ALBUMIN [1] of the same compound?
Answer: 3.9 G/DL

Question: And the “ALKALINE PHOSPHATASE” value [1]?
Answer: 374 u/L

Question: What about the “ASPARTATE AMINOTRANSFERASE” value [1] of the same compound?
Answer: 64.33 u/L

Question: What about the “BLOOD UREA NITROGEN” value [1] of the same compound?
Answer: 14 mg/dL

Question: What about the “CARBON DIOXIDE” value [1] of the same compound?
Answer: 45.67 mmol/L

Question: And the CHLORIDE [1]?
Answer: 103 MEQ/L

Question: What about the CHOLESTEROL [1] of the same compound?
Answer: 82.67 mg/dL

Question: What about the “CREATINE PHOSPHOKINASE” value [1] of the same compound?
Answer: 216.33 u/L

Question: And the CREATININE [1]?
Answer: 0.17 mg/dL

Question: What about the GLUCOSE [1] of the same compound?
Answer: 161.33 mg/dL

Question: What about the “LACTATE DEHYDROGENASE” value [1] of the same compound?
Answer: 103.67 u/L

Question: And the LIPASE [1]?
Answer: 8.67 u/L

Question: What about the PHOSPHORUS [1] of the same compound?
Answer: 11 mg/dL

Question: And the POTASSIUM [1]?
Answer: 6.83 MEQ/L

Question: And the SODIUM [1]?
Answer: 144.67 MEQ/L

Question: What about the “TOTAL BILIRUBIN” value [1] of the same compound?
Answer: 0.27 mg/dL

Question: And the “TOTAL PROTEIN” value [1]?
Answer: 6.27 G/DL

Question: And the “URIC ACID” value [1]?
Answer: 0.67 mg/dL

Question: What about the ABSOLUTE BASOPHIL (2000 mg/kg, dose level High) of the same compound?
Answer: 63.3 cells/µL

Question: What about the ABSOLUTE EOSINOPHIL (2000 mg/kg, dose level High) of the same compound?
Answer: 56.7 cells/µL

Question: What about the ABSOLUTE LYMPHOCYTE (2000 mg/kg, dose level High) of the same compound?
Answer: 5990 cells/µL

Question: What about the ABSOLUTE MONOCYTE (2000 mg/kg, dose level High) of the same compound?
Answer: 100 cells/µL

Question: What about the BASOPHIL (2000 mg/kg, dose level High) of the same compound?
Answer: 0.97%

Question: And the EOSINOPHIL (2000 mg/kg, dose level High)?
Answer: 0.77%

Question: And the “ERYTHROCYTE COUNT” value (2000 mg/kg, dose level High)?
Answer: 7.26 x10E6/uL

Question: What about the HEMATOCRIT (2000 mg/kg, dose level High) of the same compound?
Answer: 47.47%

Question: What about the HEMOGLOBIN (2000 mg/kg, dose level High) of the same compound?
Answer: 14.97 G/DL

Question: And the “LEUKOCYTE COUNT” value (2000 mg/kg, dose level High)?
Answer: 6.8 x10E3/uL

Question: And the LYMPHOCYTE (2000 mg/kg, dose level High)?
Answer: 87.87%

Question: And the “MEAN CORPUSCULAR HEMOGLOBIN” value (2000 mg/kg, dose level High)?
Answer: 20.6 pg

Question: And the “MEAN CORPUSCULAR VOLUME” value (2000 mg/kg, dose level High)?
Answer: 65.27 fL

Question: And the MONOCYTE (2000 mg/kg, dose level High)?
Answer: 1.5%

Question: What about the NEUTROPHIL (2000 mg/kg, dose level High) of the same compound?
Answer: 8.47%

Question: And the “PLATELET COUNT” value (2000 mg/kg, dose level High)?
Answer: 1455 x10E3/uL

Question: What about the “ALANINE AMINOTRANSFERASE” value (2000 mg/kg, dose level High) of the same compound?
Answer: 19.67 u/L

Question: And the ALBUMIN (2000 mg/kg, dose level High)?
Answer: 4.17 G/DL

Question: And the “ALKALINE PHOSPHATASE” value (2000 mg/kg, dose level High)?
Answer: 348 u/L

Question: What about the “ASPARTATE AMINOTRANSFERASE” value (2000 mg/kg, dose level High) of the same compound?
Answer: 59.33 u/L

Question: What about the “BLOOD UREA NITROGEN” value (2000 mg/kg, dose level High) of the same compound?
Answer: 11.33 mg/dL

Question: What about the “CARBON DIOXIDE” value (2000 mg/kg, dose level High) of the same compound?
Answer: 39.67 mmol/L

Question: What about the CHLORIDE (2000 mg/kg, dose level High) of the same compound?
Answer: 104 MEQ/L

Question: What about the CHOLESTEROL (2000 mg/kg, dose level High) of the same compound?
Answer: 66.33 mg/dL

Question: And the “CREATINE PHOSPHOKINASE” value (2000 mg/kg, dose level High)?
Answer: 336 u/L

Question: What about the CREATININE (2000 mg/kg, dose level High) of the same compound?
Answer: 0.3 mg/dL

Question: What about the GLUCOSE (2000 mg/kg, dose level High) of the same compound?
Answer: 156 mg/dL

Question: And the “LACTATE DEHYDROGENASE” value (2000 mg/kg, dose level High)?
Answer: 112.67 u/L

Question: What about the LIPASE (2000 mg/kg, dose level High) of the same compound?
Answer: 8.33 u/L

Question: And the PHOSPHORUS (2000 mg/kg, dose level High)?
Answer: 12.4 mg/dL

Question: What about the POTASSIUM (2000 mg/kg, dose level High) of the same compound?
Answer: 7.03 MEQ/L

Question: And the SODIUM (2000 mg/kg, dose level High)?
Answer: 145.67 MEQ/L

Question: And the “TOTAL BILIRUBIN” value (2000 mg/kg, dose level High)?
Answer: 0.3 mg/dL

Question: What about the “TOTAL PROTEIN” value (2000 mg/kg, dose level High) of the same compound?
Answer: 6.8 G/DL

Question: What about the “URIC ACID” value (2000 mg/kg, dose level High) of the same compound?
Answer: 0.8 mg/dL

— ChEMBL document CHEMBL3885881, “DrugMatrix”
